Test results: patent US10364256B2 (GlaxoSmithKline Intellectual Property Development Limited, priority 2015, dated 2019)
pIC50: −log10 of the molar value.

How the values were obtained:
[1] = target: T1, full length Keap1 protein / full length NRF2 protein (Homo sapiens, UniProt Q14145); assay: NRF2-Keap1 TR-FRET Assay; assay type: binding; settings: 25 nM Keap1-FlagHis and 50 nM biotin-NRF2 added
T1 construct: full length NRF2 protein and full length Keap1 protein (Keap1 exists a dimer) are used; His
How it was run: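 Full-length Keap1-FlagHis preincubated with compound 2.25 h at 37 °C, then biotin-NRF2 added for 1.25 h at 4 °C, in Tris pH 8.0 with MgCl2, NaCl, BSA, DTT, CHAPS. TR-FRET 665/615 nm ratio normalised to with- and without-protein 1% DMSO controls; pIC50 from four-parameter fit.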

[2] = target: T2, Keap1 Kelch domain (321-609) / TAMRA-labeled 16mer NRF2 peptide (ETGE motif) (Homo sapiens, UniProt Q14145); assay: NRF2-Keap1 FP Assay (Keap1 Kelch fluorescence polarization); assay type: binding; settings: 20 nM Keap1 (321-609), 8 nM Tamra labeled peptide
T2 construct: the Kelch domain (321-609) of Keap1 is used
How it was run: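 Compound dilutions (3-fold) were incubated 1 hr at room temperature with 20 nM Keap1 Kelch (321-609) and 8 nM TAMRA-labeled ETGE 16mer peptide. Buffer was 50 mM Tris pH 8.0, 100 mM NaCl, 5 mM MgCl2, 1 mM DTT, 2 mM CHAPS, 0.005% BSA. Fluorescence polarization (mP) was normalized to controls and fitted with a four-parameter equation to give pIC50.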

T2 sequence (Q14145 321-609): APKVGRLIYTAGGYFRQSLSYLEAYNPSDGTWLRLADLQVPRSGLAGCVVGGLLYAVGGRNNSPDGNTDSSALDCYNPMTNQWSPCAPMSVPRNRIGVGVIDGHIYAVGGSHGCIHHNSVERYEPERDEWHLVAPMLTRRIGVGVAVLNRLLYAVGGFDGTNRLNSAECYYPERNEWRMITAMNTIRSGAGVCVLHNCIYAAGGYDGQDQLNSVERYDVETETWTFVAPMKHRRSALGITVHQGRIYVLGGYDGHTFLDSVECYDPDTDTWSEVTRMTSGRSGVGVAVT
T1 sequence (Q14145 whole entry): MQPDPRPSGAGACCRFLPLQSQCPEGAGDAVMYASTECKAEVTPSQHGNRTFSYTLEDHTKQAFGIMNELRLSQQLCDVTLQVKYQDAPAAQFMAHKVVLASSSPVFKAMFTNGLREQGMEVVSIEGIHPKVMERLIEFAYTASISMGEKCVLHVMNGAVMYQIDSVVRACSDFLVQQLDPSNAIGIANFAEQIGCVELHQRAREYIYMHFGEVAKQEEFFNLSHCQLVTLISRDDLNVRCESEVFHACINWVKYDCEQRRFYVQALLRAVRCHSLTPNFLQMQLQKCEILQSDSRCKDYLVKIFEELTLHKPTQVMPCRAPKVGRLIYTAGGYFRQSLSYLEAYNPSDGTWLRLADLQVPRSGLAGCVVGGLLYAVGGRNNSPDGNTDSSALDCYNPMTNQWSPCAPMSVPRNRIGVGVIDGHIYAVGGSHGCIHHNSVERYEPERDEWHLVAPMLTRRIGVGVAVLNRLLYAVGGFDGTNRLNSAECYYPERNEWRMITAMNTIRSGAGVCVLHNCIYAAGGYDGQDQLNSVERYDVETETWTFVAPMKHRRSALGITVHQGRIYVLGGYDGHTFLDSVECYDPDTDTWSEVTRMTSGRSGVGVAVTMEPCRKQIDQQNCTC

| SMILES | pIC50 [1] | pIC50 [2] |
| --- | --- | --- |
| Cn1cc(C2CC2c2c(C(=O)O)cnn2-c2cccc(-c3cccc(OC4CCOCC4)c3F)c2)nn1 (centres unmarked) [Example 234, 1-(2′-Fluoro-3′-((tetrahydro-2H-pyran-4-yl)oxy)-[1,1′-biphenyl]-3-yl)-5-(2-(1-methyl-1H-1,2,3-triazol-4-yl)cyclopropyl)-1H-pyrazole-4-carboxylic Acid] | 6.00 to 7.00 | 7.00 to 8.00 |
| CC(Oc1cccc(-c2cccc(-n3ncc(C(=O)O)c3C3CC3c3cn(C)nn3)c2)c1)c1ccccc1 (centres unmarked) [Example 235, 5-(2-(1-Methyl-1H-1,2,3-triazol-4-yl)cyclopropyl)-1-(3′-(1-phenylethoxy)-[1,1′-biphenyl]-3-yl)-1H-pyrazole-4-carboxylic Acid] | 6.00 to 7.00 | 7.00 to 8.00 |
| Cn1cc(C2CC2c2c(C(=O)O)cnn2-c2cccc(-c3cccc(C(=O)C4CCCCC4)c3)c2)nn1 (centres unmarked) [Example 243, 1-(3′-(Cyclohexanecarbonyl)-[1,1′-biphenyl]-3-yl)-5-(2-(1-methyl-1H-1,2,3-triazol-4-yl)cyclopropyl)-1H-pyrazole-4-carboxylic Acid] | 6.00 to 7.00 | 7.00 to 8.00 |
| COC(c1cccc(-c2cccc(-n3ncc(C(=O)O)c3C3CC3c3cn(C)nn3)c2)c1)C1CCCCC1 (centres unmarked) [Example 244, 1-(3′-(Cyclohexyl(methoxy)methyl)-[1,1′-biphenyl]-3-yl)-5-(2-(1-methyl-1H-1,2,3-triazol-4-yl)cyclopropyl)-1H-pyrazole-4-carboxylic acid] | 6.00 to 7.00 | 7.00 to 8.00 |
